Article PMC9465178, “Cinnamaldehyde derivatives act as antimicrobial agents against Acinetobacter baumannii through the inhibition of cell division” (Frontiers in Microbiology, 2022)
Entries after “also recorded” stand apart in the source; their conditions may differ. Where two headings read alike, the source gives them in different places.

How the values were obtained:
A. baumannii ATCC 19606 [1] = assay: Checkerboard titration MIC with efflux pump inhibitor PAβN; type: cell-based; details: Acinetobacter baumannii, ATCC19606, A. baumannii ATCC 19606
Experimental: (§1) To determine if expression of efflux pumps would play a role in the efflux of the cinnamaldehyde derivatives leading to poor antimicrobial activity, interactions between PAβN and the LXC compounds were assessed by checkerboard titration assay. The checkerboard titration assay was performed as previously described ([Chai et al., 2020]). Briefly, PAβN was added in the first row and serially diluted in CaMH broth along the ordinate of the microwell plate while the LXC compounds were serially diluted along the abscissa. Bacterial suspension for A. baumannii ATCC 19606 or AB UW 5075 100 μL/well were added as described for the MIC assay. Bacterial growth was assessed at A600 nm between time 0 and 18 h (Cytation5® Cell Imaging Multi-Mode Reader, Bio-Tek®).

A. baumannii XDR UW 5075 = assay: as above; type: cell-based, Acinetobacter baumannii; details: for MIC in combination with PAβN: PAβN concentration not given in the sentence
Experimental: as §1

AbFtsZ = AbFtsZ polymerization, 90° light scattering; type: biochemical, Acinetobacter baumannii; details: test compound at 128 μg/mL, AbFtsZ 0.15 mg/mL, 1 mM GTP, 8°C
Experimental: Effects on inhibition of the cinnamaldehyde derivatives on AbFtsZ polymerization were analyzed using the assay as previously described ([Chai et al., 2020]) with the following modifications. A reaction mix was prepared in a cold Eppendorf® tube where AbFtsZ (0.15 mg/mL) was mixed with the test compound at the desired concentration and a polymerization buffer diluted from a double strength buffer to give a final concentration of 25 mM PIPES pH 6.8, 50 mM KCl and 10 mM MgCl2. The reaction mix was prepared such that the DMSO concentration remained constant at 2% (v/v). The mix was then added into a quartz cuvette (PerkinElmer®, United Kingdom), and placed in a PerkinElmer® LS 55 fluorometer under the fixed condition of excitation/emission at 350/350 nm, slit width < 2 nm, a 1 s read interval. The temperature was calibrated to remain constant at 8°C. The fluorescence was followed for 300 sec to allow equilibration, then polymerization was initiated with the addition of 1 mM GTP. A separate negative control was prepared where 1 mM GDP was added instead of the GTP. The reaction was followed for 600 s.
(A–F) AbFtsZ (0.15 mg/mL) was pre-incubated in polymerization buffer (25 mM PIPES pH 6.8, 50 mM KCl and 10 mM MgCl2) together with the test compound at 128 μg/mL for 300 s. Polymerization was then initiated with the addition of 1 mM GTP. The fluorescence was measured as a function of time at excitation and emission wavelengths of A350 and A350 nm, respectively, and a slit width of <2 nm. The blue line in each panel indicates the addition of 2.5% (v/v) DMSO, the pink line indicates the test compound tested at 128 μg/mL and the gray line represents the addition of 1 mM GDP (as negative control) instead of GTP.

mammalian tubulin = molecular target: T1, mammalian tubulin (Sus scrofa, UniProt P02550+P02554); assay: Mammalian tubulin polymerization assay kit; type: biochemical, porcine; details: compounds at 1 × MIC, 1 mM GTP, 37°C
T1 construct: purchased Cytoskeleton Inc. BK011P
T1 sequence (P02550 whole entry): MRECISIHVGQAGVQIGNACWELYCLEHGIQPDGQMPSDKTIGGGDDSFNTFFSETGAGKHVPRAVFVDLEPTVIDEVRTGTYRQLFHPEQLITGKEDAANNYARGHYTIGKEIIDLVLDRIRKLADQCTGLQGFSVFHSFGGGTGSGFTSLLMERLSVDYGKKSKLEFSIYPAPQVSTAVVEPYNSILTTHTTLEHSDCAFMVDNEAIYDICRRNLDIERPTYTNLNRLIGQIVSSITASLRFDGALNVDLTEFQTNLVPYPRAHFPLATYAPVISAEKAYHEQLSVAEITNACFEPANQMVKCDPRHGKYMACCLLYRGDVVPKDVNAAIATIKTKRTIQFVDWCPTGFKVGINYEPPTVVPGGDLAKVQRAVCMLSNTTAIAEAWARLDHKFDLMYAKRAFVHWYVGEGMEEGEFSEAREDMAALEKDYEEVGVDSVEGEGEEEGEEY
T1 sequence (P02554 whole entry): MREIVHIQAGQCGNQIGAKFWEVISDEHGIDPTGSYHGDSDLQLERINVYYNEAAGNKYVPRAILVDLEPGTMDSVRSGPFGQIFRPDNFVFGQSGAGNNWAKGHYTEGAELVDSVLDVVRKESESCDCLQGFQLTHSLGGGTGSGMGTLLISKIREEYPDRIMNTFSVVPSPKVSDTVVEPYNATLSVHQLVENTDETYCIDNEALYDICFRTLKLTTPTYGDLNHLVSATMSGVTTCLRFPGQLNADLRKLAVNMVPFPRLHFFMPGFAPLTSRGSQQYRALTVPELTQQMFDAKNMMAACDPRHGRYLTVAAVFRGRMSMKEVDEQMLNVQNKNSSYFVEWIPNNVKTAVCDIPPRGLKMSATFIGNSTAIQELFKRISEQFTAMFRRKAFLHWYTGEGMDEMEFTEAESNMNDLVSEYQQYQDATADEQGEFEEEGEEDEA
Experimental: The effects of the cinnamaldehyde analogs were analyzed for off-target effects on mammalian tubulin using the protocol as previously described ([Chai et al., 2020]), using a Tubulin Polymerization Assay Kit (Cytoskeleton Inc., BK011P, Denver, CO, United States), following the protocol described by the manufacturer.
Controls included 20 μM paclitaxel (promoter of polymerization), 20 μM vinblastine (inhibitor of polymerization) and 2.5% (v/v) DMSO (solvent control). The reaction was initiated by the addition of 1 mM GTP at 37°C. The fluorescence was read for 2,000 s using PerkinElmer Enspire® plate reader.
FIGURE 7 The effect of the LXC compounds on the polymerization of mammalian tubulin. (A–F) The polymerizing activity of the LXC compounds on porcine tubulin was assessed using a commercial Tubulin Polymerization Assay Kit. The LXC compounds at 1 × MIC were pre-incubated with tubulin on ice before the reaction was initiated by the addition of 1 mM GTP. The fluorescence was measured as a function of time at A360 and A420 nm excitation and emission wavelengths, respectively, at the constant temperature of 37°C. DMSO 2.5% (v/v) (brown curves) was used as vehicle control while paclitaxel (polymerization stabilizer; blue curves) and vinblastine (polymerization inhibitor; green curves) at 20 μM each were also included as controls.

A. baumannii ATCC 19606 [2] = assay: Cell division phenotype by light microscopy; type: cell-based, Acinetobacter baumannii; details: LXC compounds at 2 × MIC
Experimental: Morphological changes of bacteria when exposed to the compounds were assessed microscopically using the assay as previously described ([Chai et al., 2020]). Eppendorf® tubes were set up with A. baumannii ATCC 19606 as described for the time-kill assays. At time 0, 1, 3, 6, and 18 h, an aliquot of the bacterial suspension (1 μL) was transferred onto a glass slide and viewed under a light microscope (Olympus CX33®) at 100 × magnification. Representative images were captured using JENOPTIK GRYPHAX® imaging.
A 1 μL aliquot was taken out at varying timepoints (0, 1, 3, 6, and 18 h) and imaged by light microscopy. The images for 6 h are depicted here. […] The white arrow indicates “grooving” site, an indication of where separation of daughter cells should take place. Scale bar is 50 μm.
Four of the compounds (LXC 31, 33, 35 and 41) were tested at 1× and 2× their minimum inhibitory concentration (MIC) whereas LXC 36 and 43 were tested at 2× and 4× MIC. The phenotypic changes in A. baumannii morphology were analysed under a light microscope (100× magnification) at time 0, 1, 3, 6 and 18 h. Scale bar is 50 µm.

E. coli FtsZ = details: FtsZ from E. coli, 120 μg/mL; ref Li et al., 2015a; cited from earlier work
[3] = A. baumannii XDR UW 5075, +PAβN 50 μg/mL
[4] = Acinetobacter baumannii, XDRUW5075
[5] = Acinetobacter baumannii, XDRUW5075, A. baumannii XDR UW 5075, +PAβN 100 μg/mL, read-out: MIC
[6] = Acinetobacter baumannii, XDRUW5075, A. baumannii XDR UW 5075, +PAβN 200 μg/mL, read-out: MIC

Compound	MIC (A. baumannii ATCC 19606 [1]; +PAβN 0 μg/mL) [µg/mL]	MIC (A. baumannii ATCC 19606 [1]; +PAβN 50 μg/mL) [µg/mL]	MIC (A. baumannii ATCC 19606 [1]; +PAβN 100 μg/mL) [µg/mL]	MIC (A. baumannii ATCC 19606 [1]; +PAβN 200 μg/mL) [µg/mL]	MIC (A. baumannii XDR UW 5075; [3]) [µg/mL]	MIC in combination with PAβN (A. baumannii XDR UW 5075; A. baumannii XDR UW 5075) [µg/mL]	MIC (A. baumannii XDR UW 5075; [4]) [µg/mL]	MIC (A. baumannii XDR UW 5075; [5]) [µg/mL]	MIC (A. baumannii XDR UW 5075; [6]) [µg/mL]	Inhibition of AbFtsZ polymerization (AbFtsZ)	Effect on tubulin polymerization (mammalian tubulin)	Time until elongated phenotype is seen (A. baumannii ATCC 19606 [2]) [h]	Effect on FtsZ polymerization, light scattering (E. coli FtsZ)
COc1ccc(/C=C/C(=O)n2c(C)nc3ccccc32)cc1OC [Compound 5]	256	128	8	8	>128	32	> 128	64	32	strongest activity	devoid of tubulin polymerization activity		
Cc1nc2ccccc2n1C(=O)/C=C/c1ccc(Cl)cc1 [Compound 3]	128	128	8	8	>128		> 128	128	64		undesirable inhibitory activity	≤ 3	impaired polymerization
Cc1nc2ccccc2n1C(=O)/C=C/c1ccc(Br)cc1 [Compound 4]	32	32	8	8	>128		> 128	128	64		undesirable inhibitory activity against tubulin	≤ 3	
Cc1nc2ccccc2n1C(=O)/C=C/c1ccc(Cl)cc1Cl [Compound 6]	64	32	16	8	>128	32	> 128	32	32	strongest activity observed with compound 5, followed by compounds 1 and 6	devoid of tubulin polymerization activity; also recorded: lack of activity against the tubulin counter-target	≤ 3	impaired polymerization
Cc1nc2ccccc2n1C(=O)/C=C/c1ccccc1 [Compound 1]	128	128	64	32	>128		> 128	128	64	strongest activity observed with compound 5, followed by compounds 1 and 6	undesirable inhibitory activity	> 3	
Cc1nc2ccccc2n1C(=O)/C=C/c1ccc(F)cc1 [Compound 2]	128	128	32	16	>128		> 128	64	64		devoid of tubulin polymerization activity	≤ 3	impaired polymerization
